Source: patent US4029807A (priority 1975, dated 1977)

What was measured:
[1] = system: female mice; assay: Irwin's schema (behavioural symptomatology); type: in vivo; conditions: for symptomatology of our product observed with comparator: L-glutamic acid and L-5 hydroxytryptophan: separate administration at equimolecular doses
[2] = system: patients affected by Parkinson's disease; conditions: human, in vivo; cited from earlier work
[3] = system: patients in depressive phase; conditions: 5 weeks, tablets 20, 50 and 100 mg three times a day; cited from earlier work
[4] = system: uptake I (presynaptic membrane); conditions: presynaptic membrane level; cited from earlier work
[5] = system: I.C.R. Swiss albino mice; assay: Acute toxicity, intraperitoneal; type: in vivo
Procedure: (§1) The studies of acute toxicity have been made with I.C.R. Swiss albino mice of both sexes. We express the toxicity date with the parameters of lethal dose 16 (LD16), lethal dose 50 (LD50) and lethal dose 84 (LD84), in mg/kg. of weight. The substance was administered intraperitoneally.

[6] = system: depressive patient; conditions: total dose 150 mg, cited from earlier work; for response of depressive symptoms: amitryptiline with anticonvulsivant therapy for two months, 5-hydroxytryptophan 5 days, L-DOPA previously
[7] = system: antidepressive effects of the MAO inhibitors; conditions: in vivo; cited from earlier work
[8] = system: serotonin in the brains of rats; conditions: administered at the same time as monoamino-oxydase inhibitors; cited from earlier work
[9] = system: responses to serotonin (rat's isolated uterus); assay: Antiserotoninic activity, rat's isolated uterus; conditions: 40 mcg/ml
[10] = Analgesic activity, chemical analgesia; type: in vivo
[11] = clinical use, as described; cited from earlier work
[12] = Analgesic activity, thermal analgesia (hot plate at 55° C.); type: in vivo
[13] = system: cerebral serotonin; assay: Cerebral serotonin level (inferred from symptomatology of the animals injected); type: in vivo; conditions: compared with sole administration of L-5-hydroxytryptophan
[14] = Clinical tolerability / adverse effects; conditions: view of the Applicant
[15] = system: depressed patients; conditions: 10-50 mg intravenously, with a monoamino-oxydase inhibitor; cited from earlier work
[16] = system: MAO; conditions: non-hydrazinic MAO inhibitor; cited from earlier work
[17] = system: cerebral serotonin; conditions: statement without data; cited from earlier work
[18] = Acute toxicity, intraperitoneal; type: in vivo, I.C.R. Swiss albino mice; conditions: mouse, in vivo, ip; mice of both sexes, intraperitoneal
Procedure: as §1

[19] = system: serotonin in the brain; conditions: dogs; cited from earlier work
[20] = cited from earlier work
[21] = mice of both sexes, intraperitoneal

Compound: N[C@@H](Cc1c[nH]c2ccc(O)cc12)C(=O)O [L-5-hydroxytryptophan]
- symptomatology of our product observed with comparator [1]: not observed
- anti-tremor effect [2]: visible anti-tremor effect
- antidepressive action in Parkinson's disease patients [2]: intense antidepressive action with improvement of the affective field, of the psychomotor impulse and activation of personal initiative
- remission of depressive symptoms [3]: symptoms remitting so rapidly that even the patients themselves were impressed

Compound: CN(C)CCCN1c2ccccc2CCc2ccccc21 [Imipramine]
- incorporation blockage (uptake I) [4]: produces an incorporation blockage (uptake I) on the presynaptic membrane level
- LD16 [5, 21]: 33.3 mg/kg
- LD84 [5, 21]: 80 mg/kg

Compound: N[C@@H](Cc1ccc(O)c(O)c1)C(=O)O [L-DOPA]
- response of depressive symptoms [6]: without obtaining any result

Compound: CN(C)CCC=C1c2ccccc2CCc2ccccc21 [amitryptiline]
- response of depressive symptoms [6]: did not produce any positive response

Compound: N[C@@H](Cc1c[nH]c2ccccc12)C(=O)O [tryptophan]
- potentiation of the antidepressive effects of the MAO inhibitors [7]: potentiation of the antidepressive effects of the MAO inhibitors has been observed
- increase in brain serotonin with monoamino-oxydase inhibitors [8]: the increase becomes higher

Compound: L-5 hydroxytryptophan monohydrate L-glutamate [Our product]
- inhibition of the responses to serotonin [9]: 36%
- analgesic effect compared with dextropropoxyphene ([10]; 10 mg/kg oral vs dextropropoxyphene 50 mg/kg intraperitoneal, technique (chemical or thermal) not specified): same analgesic effect as dextropropoxyphene
- analgesic action, chemical analgesia ([10]; in vivo): significant analgesic action
- duration of symptoms ([1]; 10 mg/kg orally): ≥ 120 min
- onset of symptoms after administration ([1]; 10 mg/kg orally): 15 min
- pharmacological activity compared with each ingredient separately ([1]; equimolecular doses): superior to that of each ingredient separately
- symptoms (Irwin's schema) ([1]; our product 10 mg/kg orally, female mice 28±2 g): increase in the state of alertness, a reaction to cleanliness and an increase in spontaneous activity, in addition to restlessness and irritability
- adverse effects and secondary reactions [11]: No interesting secondary reactions have yet been described
- analgesic action, hot plate [12]: significant analgesic action
- raising of cerebral serotonin levels [13]: raises the levels of cerebral serotonin, in a greater way than the sole administration of L-5-hydroxytryptophan
- times less toxic than imipramine ([5]; from the foregoing table): 6 times
- times less toxic than tranilcypromine ([5]; from the foregoing table): 300 times
- LD16 [5, 21]: 260.5 mg/kg
- LD50 [5, 21]: 323 mg/kg
- LD84 [5, 21]: 401.4 mg/kg

Compound: 5-hydroxytryptophan glutamate [the product obtained by this method]
- tolerability [14]: great tolerability

Compound: NC(Cc1c[nH]c2ccc(O)cc12)C(=O)O (racemic) [DL-5-OH-tryptophan]
- improvement of depression [15]: improvement of depression in one day

Compound: N[C@@H](CCC(=O)O)C(=O)O [L-glutamic acid]
- symptomatology of our product observed with comparator [1]: not observed

Compound: N[C@@H]1C[C@H]1c1ccccc1 (relative stereo) [Tranilcypromine]
- symptomatology of our product observed with comparator [1]: Neither is this symptomatology observed
- adverse effects and secondary reactions [11]: great amount of adverse effects and secondary reactions
- inhibition of MAO [16]: powerful inhibitor of non-hydrazinic MAO
- cerebral serotonin raising action compared with our product [17]: very inferior to our product
- LD16 [5, 21]: 7.3 mg/kg
- LD84 [5, 21]: 18 mg/kg
- LD50 [18]: 11.3 mg/kg

Compound: N[C@@H](Cc1c[nH]c2ccc(O)cc12)C(=O)O [5-hydroxytryptophan]
- time to disappearance of the depressive symptoms after treatment ([6]; 5 days): two
- response of depressive symptoms [6]: rapid improvement in the state of mind
- raising of the level of serotonin in the brain [19]: 10 times
- potentiation of the antidepressive effects of the MAO inhibitors [7]: potentiation of the antidepressive effects of the MAO inhibitors has been observed
- tissue penetration ([20]; animals): rapidly penetrates most tissues
- conversion into serotonin ([20]; if there is decarboxylase): converted into serotonin
